In ChEMBL document CHEMBL1201862, “PubChem BioAssay data set” (2004):
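Protocol summary: plate cells (96-well), add compound at 5 concentrations, incubate 48 h, interpolate endpoints linearly. GI50 marks 50% less growth.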 The source made the active and inactive calls. Cut-off read from the data, not from the text of the source: active = GI50 up to about 1.1 µM and inactive = higher.

How the values were obtained:
Test in all cases: NCI tumour cell line growth inhibition, 48 h
NCI-H522 = test system: NCI-H522
Hs-578T = test system: Hs-578T
ACHN = test system: ACHN
A549 = test system: A549
PC-3 = test system: PC-3
786-0 = test system: 786-0
UACC-62 = test system: UACC-62
MDA-MB-231 = test system: MDA-MB-231
A498 = test system: A498
SK-MEL-28 = test system: SK-MEL-28
SW-620 = test system: SW-620
HCC 2998 = test system: HCC 2998
IGROV-1 = test system: IGROV-1
TK-10 = test system: TK-10
SN12C = test system: SN12C
KM12 = test system: KM12
SK-MEL-2 = test system: SK-MEL-2
HT-29 = test system: HT-29
MOLT-4 = test system: MOLT-4
SF-539 = test system: SF-539

Structure (SMILES)	GI50 (NCI-H522)	GI50 (Hs-578T)	GI50 (ACHN)	GI50 (A549)	GI50 (PC-3)	GI50 (786-0)	GI50 (UACC-62)	GI50 (MDA-MB-231)	GI50 (A498)	GI50 (SK-MEL-28)	GI50 (SW-620)	GI50 (HCC 2998)	GI50 (IGROV-1)	GI50 (TK-10)	GI50 (SN12C)	GI50 (KM12)	GI50 (SK-MEL-2)	GI50 (HT-29)	GI50 (MOLT-4)	GI50 (SF-539)
CC(C)CNCCc1ccccn1	> 100 µM (inactive)	> 100 µM (inactive)	> 100 µM (inactive)	> 100 µM (inactive)	> 100 µM (inactive)	> 100 µM (inactive)	> 100 µM (inactive)	> 100 µM (inactive)	> 100 µM (inactive)	> 100 µM (inactive)	> 100 µM (inactive)	> 100 µM (inactive)	> 100 µM (inactive)	> 100 µM (inactive)	> 100 µM (inactive)	> 100 µM (inactive)	> 100 µM (inactive)	> 100 µM (inactive)	–	–
Cc1cnc(/C=N\NC(N)=S)c2cccc(N)c12	0.871 µM (active)	> 100 µM (inactive)	0.387 µM (active)	2.58 µM (inactive)	2.27 µM (inactive)	–	0.359 µM (active)	1.52 µM (inactive)	10.8 µM (inactive)	3.27 µM (inactive)	3.01 µM (inactive)	0.578 µM (active)	1.75 µM (inactive)	5.78 µM (inactive)	0.434 µM (active)	1.9 µM (inactive)	2.1 µM (inactive)	0.711 µM (active)	0.34 µM (active)	0.676 µM (active)
COP(=O)(OC)/C(=C/c1cn(C(C)=O)c2ccccc12)NC(C)=O	> 100 µM (inactive)	35.4 µM (inactive)	53 µM (inactive)	> 100 µM (inactive)	22.4 µM (inactive)	–	–	36.1 µM (inactive)	16.6 µM (inactive)	36.4 µM (inactive)	18.5 µM (inactive)	> 10 µM (inactive)	54.8 µM (inactive)	58.2 µM (inactive)	31.6 µM (inactive)	–	2.18 µM (inactive)	41.6 µM (inactive)	> 10 µM (inactive)	–
CCC(c1ccc(OC)cc1)C1NC(=S)NC1=O (stereo not given)	> 50 µM (inactive)	> 50 µM (inactive)	> 50 µM (inactive)	> 50 µM (inactive)	> 50 µM (inactive)	> 50 µM (inactive)	–	> 50 µM (inactive)	> 50 µM (inactive)	> 50 µM (inactive)	> 50 µM (inactive)	> 50 µM (inactive)	> 50 µM (inactive)	> 50 µM (inactive)	> 50 µM (inactive)	> 50 µM (inactive)	> 50 µM (inactive)	> 50 µM (inactive)	35.5 µM (inactive)	> 50 µM (inactive)
CC1=NN=C(N)N/C1=C\C(Sc1ccc(Cl)cc1)c1ccc([N+](=O)[O-])cc1 (stereo not given)	26.9 µM (inactive)	> 100 µM (inactive)	58.9 µM (inactive)	> 100 µM (inactive)	66.7 µM (inactive)	38.1 µM (inactive)	91.6 µM (inactive)	> 100 µM (inactive)	> 100 µM (inactive)	> 100 µM (inactive)	85.3 µM (inactive)	> 100 µM (inactive)	39.1 µM (inactive)	> 100 µM (inactive)	81.1 µM (inactive)	94 µM (inactive)	> 100 µM (inactive)	> 100 µM (inactive)	93.5 µM (inactive)	–
COc1ccc(C(OC(C)=O)C2C(=C(C#N)C#N)c3ccccc3C2=C(C#N)C#N)cc1 (stereo not given)	38.2 µM (inactive)	35.6 µM (inactive)	36.4 µM (inactive)	–	21.8 µM (inactive)	60.4 µM (inactive)	–	39.5 µM (inactive)	24.1 µM (inactive)	67.3 µM (inactive)	36.8 µM (inactive)	22.6 µM (inactive)	65.6 µM (inactive)	83.9 µM (inactive)	–	43.7 µM (inactive)	27.7 µM (inactive)	29.9 µM (inactive)	25.9 µM (inactive)	20.6 µM (inactive)
O=C1C(Br)=CC2(C=C1Br)CCNC1=C2C(=O)c2[nH]cnc2C1=O	14.4 µM (inactive)	26.3 µM (inactive)	14.6 µM (inactive)	18.3 µM (inactive)	25.7 µM (inactive)	16.4 µM (inactive)	11.9 µM (inactive)	15.8 µM (inactive)	19 µM (inactive)	16.1 µM (inactive)	17.7 µM (inactive)	25.8 µM (inactive)	–	29.2 µM (inactive)	–	16.9 µM (inactive)	9.12 µM (inactive)	15.5 µM (inactive)	41.5 µM (inactive)	18.1 µM (inactive)
C=C(C)[C@@H]1CCC2=C[C@H](C/C(C)=C\C3=CC(C)=C(O3)[C@H]1O)OC2=O	68.5 µM (inactive)	65.5 µM (inactive)	57.5 µM (inactive)	88.7 µM (inactive)	73.8 µM (inactive)	35.2 µM (inactive)	93.5 µM (inactive)	25.8 µM (inactive)	> 100 µM (inactive)	> 100 µM (inactive)	> 100 µM (inactive)	> 100 µM (inactive)	93.1 µM (inactive)	71 µM (inactive)	71.8 µM (inactive)	> 100 µM (inactive)	> 100 µM (inactive)	–	> 100 µM (inactive)	48.5 µM (inactive)
